According to ChEMBL document CHEMBL5608163, “Structure modification of anoplin for fighting resistant bacteria” (Eur J Med Chem, 2024):
Square brackets hold non-standard residues; d marks the D form. Peptide text beside a SMILES is read from it. 2Nal = N[C@@H](Cc1ccc2ccccc2c1)C(=O)O; Aoc(2) = CCCCCC[C@H](N)C(=O)O; hLeu = CC(C)CC[C@H](N)C(=O)O; Dab = NCC[C@H](N)C(=O)O

How the values were obtained:
Escherichia coli = test: Antimicrobial activity against Escherichia coli ATCC 25922 assessed as reduction in microbial growth measured after 24 hrs by CLSI based broth microdilution method; assay type: functional
Erythrocyte = test: Hemolytic activity in human erythrocytes incubated for 1 hr by ELISA reader analysis; assay type: toxicity, cell-based

Row | SMILES | MIC (Escherichia coli) | HC10 (Erythrocyte)
1 | CC[C@H](C)[C@H](NC(=O)[C@H](CCCNC(=N)N)NC(=O)[C@H](CCCCN)NC(=O)[C@H](CC(C)C)NC(=O)[C@H](CCC(C)C)NC(=O)CN)C(=O)N[C@@H](CCCCN)C(=O)N[C@H](C(=O)N[C@@H](CC(C)C)C(=O)N[C@@H](CCC(C)C)C(N)=O)[C@@H](C)O (H-G[hLeu]LKRIKTL[hLeu]-NH2) | 12.5 µM | 380 µM
2 | CC[C@H](C)[C@H](NC(=O)[C@H](CCCNC(=N)N)NC(=O)[C@H](CCCCN)NC(=O)[C@H](Cc1ccc2ccccc2c1)NC(=O)CN)C(=O)N[C@@H](CCCCN)C(=O)N[C@H](C(=O)N[C@@H](CC(C)C)C(=O)N[C@@H](CC(C)C)C(N)=O)[C@@H](C)O (H-G[2Nal]KRIKTLL-NH2) | 6.25 µM | 300 µM
3 | CC[C@H](C)[C@H](NC(=O)[C@H](CCCNC(=N)N)NC(=O)[C@H](CCN)NC(=O)[C@H](CC(C)C)NC(=O)[C@H](CC(C)C)NC(=O)CN)C(=O)N[C@@H](CCCCN)C(=O)N[C@@H](CCN)C(=O)N[C@@H](CC(C)C)C(=O)N[C@@H](CC(C)C)C(N)=O (H-GLL[Dab]RIK[Dab]LL-NH2) | > 200 µM | > 500 µM
4 | CCCCCC[C@H](NC(=O)[C@H](CC(C)C)NC(=O)[C@@H](NC(=O)[C@H](CCCCN)NC(=O)[C@@H](NC(=O)[C@H](CCCNC(=N)N)NC(=O)[C@H](CCCCN)NC(=O)[C@H](CC(C)C)NC(=O)[C@H](CCCCCC)NC(=O)CN)[C@@H](C)CC)[C@@H](C)O)C(N)=O (H-G[Aoc(2)]LKRIKTL[Aoc(2)]-NH2) | 6.25 µM | 71 µM
5 | CC[C@H](C)[C@H](NC(=O)[C@H](CCCNC(=N)N)NC(=O)[C@H](CCCCN)NC(=O)[C@H](CCSC)NC(=O)[C@H](CC(C)C)NC(=O)CN)C(=O)N[C@@H](CCCCN)C(=O)N[C@H](C(=O)N[C@@H](CCSC)C(=O)N[C@@H](CC(C)C)C(N)=O)[C@@H](C)O (H-GLMKRIKTML-NH2) | > 200 µM | > 500 µM
6 | CC[C@H](C)[C@H](NC(=O)[C@H](CCCNC(=N)N)NC(=O)[C@H](CCCCN)NC(=O)[C@H](CC(C)C)NC(=O)[C@H](C)NC(=O)CN)C(=O)N[C@@H](CCCCN)C(=O)N[C@H](C(=O)N[C@@H](CC(C)C)C(=O)N[C@@H](C)C(N)=O)[C@@H](C)O (H-GALKRIKTLA-NH2) | 50 µM | > 500 µM
7 | CC[C@H](C)[C@H](NC(=O)[C@H](CCCNC(=N)N)NC(=O)[C@H](CCCCN)NC(=O)[C@@H](NC(=O)[C@@H](NC(=O)CN)C(C)C)C(C)C)C(=O)N[C@@H](CCCCN)C(=O)N[C@H](C(=O)N[C@H](C(=O)N[C@H](C(N)=O)C(C)C)C(C)C)[C@@H](C)O (H-GVVKRIKTVV-NH2) | > 200 µM | > 500 µM
8 | CC[C@H](C)[C@H](NC(=O)[C@H](CCCNC(=N)N)NC(=O)[C@H](CCCCN)NC(=O)[C@H](CC(C)C)NC(=O)[C@H](CCSC)NC(=O)CN)C(=O)N[C@@H](CCCCN)C(=O)N[C@H](C(=O)N[C@@H](CC(C)C)C(=O)N[C@@H](CCSC)C(N)=O)[C@@H](C)O (H-GMLKRIKTLM-NH2) | > 200 µM | 500 µM
9 | CC[C@H](C)[C@H](NC(=O)[C@H](CCCNC(=N)N)NC(=O)[C@H](CCCCN)NC(=O)[C@H](CCC(C)C)NC(=O)[C@H](CCC(C)C)NC(=O)CN)C(=O)N[C@@H](CCCCN)C(=O)N[C@H](C(=O)N[C@@H](CCC(C)C)C(=O)N[C@@H](CCC(C)C)C(N)=O)[C@@H](C)O (H-G[hLeu][hLeu]KRIKT[hLeu][hLeu]-NH2) | 12.5 µM | 125 µM
10 | CCCCCC[C@H](NC(=O)[C@H](CCCCCC)NC(=O)[C@@H](NC(=O)[C@H](CCCCN)NC(=O)[C@@H](NC(=O)[C@H](CCCNC(=N)N)NC(=O)[C@H](CCCCN)NC(=O)[C@H](CCCCCC)NC(=O)[C@H](CCCCCC)NC(=O)CN)[C@@H](C)CC)[C@@H](C)O)C(N)=O (H-G[Aoc(2)][Aoc(2)]KRIKT[Aoc(2)][Aoc(2)]-NH2) |  | 20 µM
